In patent publication US20230391760A1, “HETEROCYCLIC GLP-1 AGONISTS” (Gasherbrum Bio, Inc., priority 2020, published 2023) one finds EC50 data, which are given here for 22 compounds.

The target in the experiment is GLP-1 Receptor (Homo sapiens, UniProt P43220). The experiment in a line: GLP-1R agonist cAMP stimulation assay (HEK293/GLP1R/CRE-LUC cells, cAMP dynamic 2 Kit). The experiment is classed as cell-based. The note with it: HEK293/CRE-Luc cell line stably expressing the GLP-1 Receptor, 30 min at 37° C. In a few lines: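 HEK293 cells stably expressing human GLP-1R with CRE-luciferase, 1000 cells/well in DPBS with 0.5 mM IBMX and 0.1% BSA, treated with compound in 1/2-log serial dilution for 30 min at 37 °C. cAMP then detected by HTRF (cAMP-d2 plus anti-cAMP cryptate), 1 h at room temperature in the dark.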
Sequence of GLP-1 Receptor (P43220 24-463, species assumed): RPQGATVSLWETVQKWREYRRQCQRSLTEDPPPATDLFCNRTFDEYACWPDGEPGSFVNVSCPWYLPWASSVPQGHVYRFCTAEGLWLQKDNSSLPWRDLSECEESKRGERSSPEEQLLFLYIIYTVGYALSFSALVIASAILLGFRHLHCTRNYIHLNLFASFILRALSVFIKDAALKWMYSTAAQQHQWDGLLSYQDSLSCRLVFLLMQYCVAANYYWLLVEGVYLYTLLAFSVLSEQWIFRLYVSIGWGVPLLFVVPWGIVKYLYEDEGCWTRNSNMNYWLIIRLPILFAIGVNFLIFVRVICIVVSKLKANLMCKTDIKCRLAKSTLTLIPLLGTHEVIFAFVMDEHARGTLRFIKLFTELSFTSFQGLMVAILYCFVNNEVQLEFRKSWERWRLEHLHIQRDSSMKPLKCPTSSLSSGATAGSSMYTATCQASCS
Take `Cc1nnc(-c2cc3nc(CN4CCC(c5cccc6c5OC(c5ccc(Cl)cc5F)CO6)CC4)n(C[C@@H]4CCO4)c3cn2)[nH]1` (stereo partly drawn) [Compound 468a, 4-[3-(4-chloro-2-fluorophenyl)-2,3-dihydro-1,4-benzodioxin-5-yl]-1-{[6-(5-methyl-4H-1,2,4-triazol-3-yl)-3-{[(2S)-oxetan-2-yl]methyl}-3H-imidazo[4,5-c]pyridin-2-yl]methyl}piperidine]: the EC50 (commonly the concentration that produces a half-maximal response) is 0.53 nM. For the compound `Fc1cc(Cl)ccc1COc1cccc(C2CCN(Cc3nc4cc(-c5nnc(C(F)(F)F)[nH]5)cnc4n3C[C@@H]3CCO3)CC2)n1` [Compound 327a, 2-[(4-chloro-2-fluorophenyl)methoxy]-6-{1-[(3-{[(2S)-oxetan-2-yl]methyl}-6-[5-(trifluoromethyl)-4H-1,2,4-triazol-3-yl]-3H-imidazo[4,5-b]pyridin-2-yl)methyl]piperidin-4-yl}pyridine], the EC50 is 0.013 nM. With “4-[2-(4-chloro-2-fluorophenyl)-2-methyl-2H-1,3-benzodioxol-4-yl]-1-[(3-{[(2S)-oxolan-2-yl]methyl}-6-[5-(trifluoromethyl)-4H-1,2,4-triazol-3-yl]-3H-imidazo[4,5-b]pyridin-2-yl)methyl]piperidine [Compound 247a]”, it took 3.4 nM to reach a half-maximal effect (EC50). The value for `CC1(c2ccc(Cl)cc2F)Oc2cccc(C3CCN(Cc4nc5cc(-c6cn[nH]c6)ccc5n4C[C@@H]4CCO4)CC3)c2O1` (stereo partly drawn) [Compound 234a, 2-((4-(2-(4-chloro-2-fluorophenyl)-2-methylbenzo[d][1,3]dioxol-4-yl)piperidin-1-yl)methyl)-1-(((S)-oxetan-2-yl)methyl)-5-(1H-pyrazol-4-yl)-1H-benzo[d]imidazole] was 3.7 nM; that for `CC(C(=O)Nc1ccc2c(c1)nc(CN1CCC(c3cccc(OCc4ccc(Cl)cc4F)n3)CC1)n2C[C@@H]1CCO1)c1cnn(C)c1` (stereo partly drawn) [Compound 182a, N-{2-[(4-{6-[(4-chloro-2-fluorophenyl)methoxy]pyridin-2-yl}piperidin-1-yl)methyl]-1-{[(2S)-oxetan-2-yl]methyl}-1H-1,3-benzodiazol-5-yl}-2-(1-methyl-1H-pyrazol-4-yl)propanamide] was 2.5 nM. In the case of `Cc1nnc(-c2cc3nc(CN4CCC(c5cccc6c5OC(C)(c5ccc(Cl)cn5)O6)CC4)n(C[C@@H]4CCO4)c3cn2)[nH]1` (stereo partly drawn) [Compound 267a, 5-chloro-2-[2-methyl-4-(1-{[6-(5-methyl-4H-1,2,4-triazol-3-yl)-3-{[(2S)-oxetan-2-yl]methyl}-3H-imidazo[4,5-c]pyridin-2-yl]methyl}piperidin-4-yl)-2H-1,3-benzodioxol-2-yl]pyridine] it was 0.051 nM; in that of `Fc1cc(Cl)ccc1COc1cccc(C2CCN(Cc3nc4cc(-c5cn(C6CCCOC6)nn5)ccc4n3C[C@@H]3CCO3)CC2)n1` (stereo partly drawn) [Compound 209a, 2-[(4-{6-[(4-chloro-2-fluorophenyl)methoxy]pyridin-2-yl}piperidin-1-yl)methyl]-5-[1-(oxan-3-yl)-1H-1,2,3-triazol-4-yl]-1-{[(2S)-oxetan-2-yl]methyl}-1H-1,3-benzodiazole], 3.2 nM; in that of `CC1(c2ccc(Cl)cc2F)Oc2cccc(C3CCN(Cc4nc5cc(-c6nnn[nH]6)ccc5n4C[C@@H]4CCO4)CC3)c2O1` (stereo partly drawn) [Compound 232a, 2-((4-(2-(4-chloro-2-fluorophenyl)-2-methylbenzo[d][1,3]dioxol-4-yl)piperidin-1-yl)methyl)-1-(((S)-oxetan-2-yl)methyl)-5-(1H-tetrazol-5-yl)-1H-benzo[d]imidazole], 0.16 nM. Turning to `CC1(c2ccc(Cl)cc2F)Oc2cccc(C3CCN(Cc4nc5cc(-c6n[nH]c(=O)o6)ccc5n4C[C@@H]4CCO4)CC3)c2O1` (stereo partly drawn) [Compound 219a, 5-[2-({4-[2-(4-chloro-2-fluorophenyl)-2-methyl-2H-1,3-benzodioxol-4-yl]piperidin-1-yl}methyl)-1-{[(2S)-oxetan-2-yl]methyl}-1H-1,3-benzodiazol-5-yl]-2,3-dihydro-1,3,4-oxadiazol-2-one], a half-maximal effect (EC50) was put at 1.6 nM. With `C[C@]1(c2ccc(Cl)cc2F)Oc2cccc(C3CCN(Cc4nc5cc(-c6nnc(C(F)(F)F)[nH]6)ncc5n4C[C@@H]4CCO4)CC3)c2O1` [Compound 366a, 4-[(2S)-2-(4-chloro-2-fluorophenyl)-2-methyl-2H-1,3-benzodioxol-4-yl]-1-[(3-{[(2S)-oxetan-2-yl]methyl}-6-[5-(trifluoromethyl)-4H-1,2,4-triazol-3-yl]-3H-imidazo[4,5-c]pyridin-2-yl)methyl]piperidine], the midpoint of the response, the EC50, lay at 0.012 nM.

In turn, `C[C@]1(c2ccc(Cl)cc2F)Oc2cccc(C3CCN(Cc4nc5cc(-c6nnc[nH]6)ncc5n4C[C@@H]4CCO4)CC3)c2O1` [Compound 440a, 4-[(2S)-2-(4-chloro-2-fluorophenyl)-2-methyl-2H-1,3-benzodioxol-4-yl]-1-[(3-{[(2S)-oxetan-2-yl]methyl}-6-(4H-1,2,4-triazol-3-yl)-3H-imidazo[4,5-c]pyridin-2-yl)methyl]piperidine] came in with an EC50 of 0.04 nM.

In the case of `CC1(c2ccc(Cl)cc2F)Oc2cccc(C3CCN(Cc4nc5cc(-c6nnn[nH]6)c(F)cc5n4C[C@@H]4CCO4)CC3)c2O1` (stereo partly drawn) [Compound 223a, 2-({4-[2-(4-chloro-2-fluorophenyl)-2-methyl-2H-1,3-benzodioxol-4-yl]piperidin-1-yl}methyl)-6-fluoro-1-{[(2S)-oxetan-2-yl]methyl}-5-(1H-1,2,3,4-tetrazol-5-yl)-1H-1,3-benzodiazole], the EC50 stood at 0.12 nM. On to `Fc1cc(Cl)ccc1COc1ncccc1C1=CCN(Cc2nc3cc(-c4nnc(C(F)(F)F)[nH]4)ccc3n2C[C@@H]2CCO2)CC1` [Compound 390a, 2-[(4-chloro-2-fluorophenyl)methoxy]-1′-[(1-{[(2S)-oxetan-2-yl]methyl}-5-[5-(trifluoromethyl)-4H-1,2,4-triazol-3-yl]-1H-1,3-benzodiazol-2-yl)methyl]-1′,2′,3′,6′-tetrahydro-3,4′-bipyridine], for which the EC50 amounted to 0.48 nM. As for `O=C(Cc1ccccc1)Nc1ccc2c(c1)nc(CN1CCC(c3cccc(OCc4ccc(Cl)cc4F)n3)CC1)n2C[C@@H]1CCO1` [Compound 130a, N-{2-[(4-{6-[(4-chloro-2-fluorophenyl)methoxy]pyridin-2-yl}piperidin-1-yl)methyl]-1-{[(2S)-oxetan-2-yl]methyl}-1H-1,3-benzodiazol-5-yl}-2-phenylacetamide], a half-maximal response (EC50) required 5.1 nM.

`CCc1ccc(C(=O)Nc2ccc3c(c2)nc(CN2CCC(c4cccc(OCc5ccc(Cl)cc5F)n4)CC2)n3C[C@@H]2CCO2)cn1` [Compound 174a, N-{2-[(4-{6-[(4-chloro-2-fluorophenyl)methoxy]pyridin-2-yl}piperidin-1-yl)methyl]-1-{[(2S)-oxetan-2-yl]methyl}-1H-1,3-benzodiazol-5-yl}-6-ethylpyridine-3-carboxamide] came in with an EC50 of 0.56 nM. In the case of `CN1CCCC(C(=O)Nc2ccc3c(c2)nc(CN2CCC(c4cccc(OCc5ccc(Cl)cc5F)n4)CC2)n3C[C@@H]2CCO2)C1` (stereo partly drawn) [Compound 202a, N-{2-[(4-{6-[(4-chloro-2-fluorophenyl)methoxy]pyridin-2-yl}piperidin-1-yl)methyl]-1-{[(2S)-oxetan-2-yl]methyl}-1H-1,3-benzodiazol-5-yl}-1-methylpiperidine-3-carboxamide] it was 6 nM; in that of `Cc1cc(=O)[nH]c(-c2cc3nc(CN4CCC(c5cccc(OCc6ccc(Cl)cc6F)n5)CC4)n(C[C@@H]4CCO4)c3cn2)n1` [Compound 453a, 2-{2-[(4-{6-[(4-chloro-2-fluorophenyl)methoxy]pyridin-2-yl}piperidin-1-yl)methyl]-3-{[(2S)-oxetan-2-yl]methyl}-3H-imidazo[4,5-c]pyridin-6-yl}-6-methyl-3,4-dihydropyrimidin-4-one], 1.9 nM. On to `CO[C@@H](C)Cn1c(CN2CCC(c3cccc4c3O[C@@](C)(c3ccc(C#N)cc3F)O4)CC2)nc2cc(-c3noc(=O)[nH]3)ncc21` [Compound 443a, 3-fluoro-4-[(2S)-4-[1-({3-[(2S)-2-methoxypropyl]-6-(5-oxo-4,5-dihydro-1,2,4-oxadiazol-3-yl)-3H-imidazo[4,5-c]pyridin-2-yl}methyl)piperidin-4-yl]-2-methyl-2H-1,3-benzodioxol-2-yl]benzonitrile], for which a half-maximal effect (EC50) was put at 0.28 nM. In the case of `Fc1cc(Cl)ccc1COc1cccc(C2CCN(Cc3nc4cc(/C=C/c5cccnc5)ccc4n3C[C@@H]3CCO3)CC2)n1` [Compound 217a, 2-[(4-{6-[(4-chloro-2-fluorophenyl)methoxy]pyridin-2-yl}piperidin-1-yl)methyl]-1-{[(2S)-oxetan-2-yl]methyl}-5-[(E)-2-(pyridin-3-yl)ethenyl]-1H-1,3-benzodiazole], the EC50 was determined as 4.6 nM. The compound `Cc1nnc(-c2cc3nc(CN4CCC(c5cccc6c5O[C@@](C)(c5ccc(Cl)cc5F)O6)CC4)n(C[C@@H]4CCO4)c3nn2)[nH]1` [Compound 280a, 4-[(2S)-2-(4-chloro-2-fluorophenyl)-2-methyl-2H-1,3-benzodioxol-4-yl]-1-{[3-(5-methyl-4H-1,2,4-triazol-3-yl)-7-{[(2S)-oxetan-2-yl]methyl}-7H-imidazo[4,5-c]pyridazin-6-yl]methyl}piperidine] displayed an EC50 of 0.11 nM. Consider `CC1(c2ccc(Cl)cc2F)Oc2cccc(C3CCN(Cc4nc5cc(-c6cn(CCS(C)(=O)=O)nn6)ccc5n4C[C@@H]4CCO4)CC3)c2O1` (stereo partly drawn) [Compound 250a, 2-({4-[2-(4-chloro-2-fluorophenyl)-2-methyl-2H-1,3-benzodioxol-4-yl]piperidin-1-yl}methyl)-5-[1-(2-methanesulfonylethyl)-1H-1,2,3-triazol-4-yl]-1-{[(2S)-oxetan-2-yl]methyl}-1H-1,3-benzodiazole], for which the EC50 turned out to be 0.11 nM. As for `CSc1nnc(-c2ccc3c(c2)nc(CN2CCC(c4cccc5c4OC(C)(c4ccc(Cl)cc4F)O5)CC2)n3C[C@@H]2CCO2)[nH]1` (stereo partly drawn) [Compound 252a, 2-({4-[2-(4-chloro-2-fluorophenyl)-2-methyl-2H-1,3-benzodioxol-4-yl]piperidin-1-yl}methyl)-5-[5-(methylsulfanyl)-4H-1,2,4-triazol-3-yl]-1-{[(2S)-oxetan-2-yl]methyl}-1H-1,3-benzodiazole], the EC50 is 0.066 nM.
